Values joined by “and” are separate entries in the source; they are usually repeats but may differ in a detail not shown here. Equal values may be shown once.
What was measured:
FIH [1] = molecular target: T1, FIH (Homo sapiens, UniProt Q9NWT6); experiment: SPE-MS FIH turnover (cosubstrate) assay in the absence of 2OG; assay type: biochemical; conditions: 330 μM 2OG or 2OG derivative, no 2OG, t = 15 min
How it was run: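 Purified recombinant FIH incubated with C3/C4-substituted 2OG derivatives in place of 2OG; substrate hydroxylation (+16 Da) read by SPE-MS on C4 cartridge. Value given as % conversion = 100 × product/(substrate + product) peak integrals.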

FIH [2] = molecular target: T1, FIH; experiment: FIH steady-state kinetic parameters (SPE-MS, initial hydroxylation rates); assay type: biochemical; set-up: slope of initial reaction rate: unit not given here
Method: Final 2OG/2OG derivative concentrations are given in Supplementary Figs. 5 and 6. Reactions were monitored with a rate of ~1 sample/40 s using the same SPE-MS configuration as described above. Data were analyzed as described above and the slopes of the initial reaction rates (Supplementary Figs. 5 and 6) fitted to a Michaelis–Menten plot using non-linear regression (GraphPad Prism 5). […]
determine kinetic parameters for 2OG derivatives (continues on the following page). Maximum velocities (vapp ) and Michaelis constants (Kapp) of FIH were determined in independent triplicates for 2OG and the 2OG […]
SPE-MS as described in the Methods section. […]
acid (LAA), and 20 μM ammonium iron(II) sulfate hexahydrate (FAS, (NH4)2Fe(SO4)2·6H2O) in buffer (50 mM […]
Tris, 50 mM NaCl, pH 7.5, 20° C). […]
data are provided as a Source Data file. […]
concentrations of 2OG; (b) hydroxylation rates used to determine kinetic parameters of FIH for 2OG; (c) time […]
3-methyl-2OG (1); (d) hydroxylation rates used to determine kinetic parameters of FIH for 1; (e) time course of […]
2OG (12); (f) hydroxylation rates used to determine kinetic parameters of FIH for 12; (g) time course of the FIH- […]
(h) hydroxylation rates used to determine kinetic parameters of FIH for 14; (i) time course of the FIH-catalyzed […]
(carboxycarbonyl)cyclopentane-1-carboxylic acid (22); (j) hydroxylation rates used to determine kinetic parameters of FIH for 22.
Supplementary Figure 6. Hydroxylation rates of FIH-catalyzed CA1-20 hydroxylations used to determine kinetic parameters for 2OG derivatives (continues on the following page). Maximum velocities (vapp ) and […]
ammonium iron(II) sulfate hexahydrate (FAS, (NH4)2Fe(SO4)2·6H2O) in buffer (50 mM Tris, 50 mM NaCl, pH […]
Source data are provided as a Source […]
of 2OG; (b) hydroxylation rates used to determine kinetic parameters of FIH for 2OG; (c) time course of the FIH-catalyzed hydroxylation reaction of the CA1-20 peptide for the shown concentrations of 3-methyl-2OG (1); (d) hydroxylation rates used to determine kinetic parameters of FIH for 1; (e) time course of the FIH -catalyzed hydroxylation reaction of the CA 1-20 peptide for the shown concentrations of 4 -methyl-2OG (12); (f) hydroxylation rates used to determine kinetic parameters of FIH for 12; (g) time course of the FIH-catalyzed hydroxylation reaction of the CA1-20 peptide for the shown concentrations of 4-ethyl-2OG (14); (h) hydroxylation rates used to determine kinetic parameters of FIH for 14; (i) time course of the FIH-catalyzed hydroxylation reaction of the CA1-20 peptide for the shown concentrations of 3-(carboxycarbonyl)cyclopentane-1-carboxylic acid (22); (j) hydroxylation rates used to determine kinetic parameters of FIH for 22.

T1 sequence (Q9NWT6 whole entry): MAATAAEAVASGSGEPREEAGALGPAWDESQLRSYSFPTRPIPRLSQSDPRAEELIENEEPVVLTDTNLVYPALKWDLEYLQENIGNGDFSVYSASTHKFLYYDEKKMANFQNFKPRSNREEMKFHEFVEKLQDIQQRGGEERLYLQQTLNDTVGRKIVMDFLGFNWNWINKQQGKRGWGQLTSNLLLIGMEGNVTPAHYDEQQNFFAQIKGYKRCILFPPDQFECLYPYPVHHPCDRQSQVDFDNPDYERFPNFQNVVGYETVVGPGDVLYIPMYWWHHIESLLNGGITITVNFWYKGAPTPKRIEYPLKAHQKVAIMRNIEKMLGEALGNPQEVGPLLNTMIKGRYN

FIH activity, %-substrate conversion (FIH [1]; CA1–20 substrate): ~75% | FIH activity, %-substrate conversion (FIH [1]; HIF-1α788–822 substrate): ~10% | SPE-MS determined concentration of hydroxylated HIF-1a peptide (FIH [2]; 0.5 uM compound 14, time 2.797 min): 0.04266 µM and 0.0716 µM and 0.08092 µM | SPE-MS determined concentration of hydroxylated HIF-1a peptide (FIH [2]; 1 uM compound 14, time 2.797 min): 0.09973 µM and 0.05746 µM and 0.08941 µM | SPE-MS determined concentration of hydroxylated HIF-1a peptide (FIH [2]; 1 uM compound 14, time 3.49667 min): 0.115 µM and 0.07268 µM and 0.1031 µM | SPE-MS determined concentration of hydroxylated HIF-1a peptide (FIH [2]; 1 uM compound 14, time 4.19733 min): 0.119 µM | SPE-MS determined concentration of hydroxylated HIF-1a peptide (FIH [2]; 2 uM compound 14, time 2.098 min): 0.07647 µM and 0.1051 µM and 0.08874 µM | SPE-MS determined concentration of hydroxylated HIF-1a peptide (FIH [2]; 2 uM compound 14, time 2.797 min): 0.08846 µM and 0.1193 µM and 0.1194 µM | SPE-MS determined concentration of hydroxylated HIF-1a peptide (FIH [2]; 2 uM compound 14, time 3.49667 min): 0.1173 µM and 0.1355 µM and 0.125 µM | SPE-MS determined concentration of hydroxylated HIF-1a peptide (FIH [2]; 2 uM compound 14, time 4.19733 min): 0.1246 µM and 0.1503 µM and 0.1494 µM | SPE-MS determined concentration of hydroxylated HIF-1a peptide (FIH [2]; 4 uM compound 14, time 0.699833 min): 0.04117 µM and 0.06069 µM and 0.06774 µM | SPE-MS determined concentration of hydroxylated HIF-1a peptide (FIH [2]; 4 uM compound 14, time 2.098 min): 0.09804 µM and 0.1128 µM and 0.1303 µM | SPE-MS determined concentration of hydroxylated HIF-1a peptide (FIH [2]; 4 uM compound 14, time 2.797 min): 0.119 µM and 0.1335 µM and 0.1587 µM | SPE-MS determined concentration of hydroxylated HIF-1a peptide (FIH [2]; 4 uM compound 14, time 3.49667 min): 0.1494 µM and 0.1576 µM and 0.1863 µM | SPE-MS determined concentration of hydroxylated HIF-1a peptide (FIH [2]; 4 uM compound 14, time 4.19733 min): 0.1634 µM and 0.187 µM and 0.2105 µM | SPE-MS determined concentration of hydroxylated HIF-1a peptide (FIH [2]; 8 uM compound 14, time 0.699833 min): 0.05237 µM and 0.05984 µM and 0.05853 µM | SPE-MS determined concentration of hydroxylated HIF-1a peptide (FIH [2]; 8 uM compound 14, time 2.098 min): 0.1084 µM and 0.1284 µM and 0.1223 µM | SPE-MS determined concentration of hydroxylated HIF-1a peptide (FIH [2]; 8 uM compound 14, time 2.797 min): 0.1357 µM and 0.1566 µM and 0.1624 µM | SPE-MS determined concentration of hydroxylated HIF-1a peptide (FIH [2]; 8 uM compound 14, time 3.49667 min): 0.1592 µM and 0.1706 µM and 0.1851 µM | SPE-MS determined concentration of hydroxylated HIF-1a peptide (FIH [2]; 8 uM compound 14, time 4.19733 min): 0.1873 µM and 0.2041 µM and 0.2053 µM | SPE-MS determined concentration of hydroxylated HIF-1a peptide (FIH [2]; 16 uM compound 14, time 0.699833 min): 0.04301 µM and 0.07322 µM and 0.06274 µM | SPE-MS determined concentration of hydroxylated HIF-1a peptide (FIH [2]; 16 uM compound 14, time 2.098 min): 0.1098 µM and 0.1258 µM and 0.1325 µM | SPE-MS determined concentration of hydroxylated HIF-1a peptide (FIH [2]; 16 uM compound 14, time 2.797 min): 0.1413 µM and 0.1532 µM and 0.1654 µM | SPE-MS determined concentration of hydroxylated HIF-1a peptide (FIH [2]; 16 uM compound 14, time 3.49667 min): 0.1747 µM and 0.1882 µM and 0.2002 µM | SPE-MS determined concentration of hydroxylated HIF-1a peptide (FIH [2]; 16 uM compound 14, time 4.19733 min): 0.1989 µM and 0.216 µM and 0.231 µM | SPE-MS determined concentration of hydroxylated HIF-1a peptide (FIH [2]; 32 uM compound 14, time 0.699833 min): 0.0551 µM and 0.06691 µM and 0.07521 µM | SPE-MS determined concentration of hydroxylated HIF-1a peptide (FIH [2]; 32 uM compound 14, time 2.098 min): 0.1143 µM and 0.1231 µM and 0.1358 µM | SPE-MS determined concentration of hydroxylated HIF-1a peptide (FIH [2]; 32 uM compound 14, time 2.797 min): 0.1568 µM and 0.1531 µM and 0.1667 µM | SPE-MS determined concentration of hydroxylated HIF-1a peptide (FIH [2]; 32 uM compound 14, time 3.49667 min): 0.1879 µM and 0.1751 µM and 0.1995 µM | SPE-MS determined concentration of hydroxylated HIF-1a peptide (FIH [2]; 32 uM compound 14, time 4.19733 min): 0.214 µM and 0.2049 µM and 0.2308 µM | slope of initial reaction rate (FIH [2]; CA1-20, 1 μM 14): 0.002761 and 0.002095 and 0.002277 | slope of initial reaction rate (FIH [2]; CA1-20, 2 μM 14): 0.00488 and 0.004776 and 0.004739 | slope of initial reaction rate (FIH [2]; CA1-20, 4 μM 14): 0.007334 and 0.006606 and 0.007233 | slope of initial reaction rate (FIH [2]; CA1-20, 8 μM 14): 0.009175 and 0.0109 and 0.00922 | slope of initial reaction rate (FIH [2]; CA1-20, 16 μM 14): 0.01109 and 0.0126 and 0.01075 | slope of initial reaction rate (FIH [2]; CA1-20, 32 μM 14): 0.01017 and 0.00931 and 0.01176 | slope of initial reaction rate (FIH [2]; HIF-1a788-822, 0.5 μM 14): 0.000241 and 0.000243 and 0.000366 | slope of initial reaction rate (FIH [2]; HIF-1a788-822, 1 μM 14): 0.000319 and 0.00043 and 0.000499 | slope of initial reaction rate (FIH [2]; HIF-1a788-822, 2 μM 14): 0.000549 and 0.000605 and 0.000685 | slope of initial reaction rate (FIH [2]; HIF-1a788-822, 4 μM 14): 0.000653 and 0.000643 and 0.000856 | slope of initial reaction rate (FIH [2]; HIF-1a788-822, 8 μM 14): 0.000767 and 0.000839 and 0.000864 | slope of initial reaction rate (FIH [2]; HIF-1a788-822, 16 μM 14): 0.00082 and 0.000767 and 0.000893 | slope of initial reaction rate (FIH [2]; HIF-1a788-822, 32 μM 14): 0.000874 and 0.000847 and 0.00081
SMILES: CCC(CC(=O)C(=O)O)C(=O)O (stereo not shown) [compound 14, 4-ethyl-2OG]

From article PMC8580996, “2-Oxoglutarate derivatives can selectively enhance or inhibit the activity of human oxygenases” (Nature Communications, 2021)
